Test results taken from US20140294967A1, “STABLE NANOCOMPOSITION COMPRISING PACLITAXEL, PROCESS FOR THE PREPARATION THEREOF, ITS USE AND PHARMACEUTICAL COMPOSITIONS CONTAINING IT” (BBS Nanotechnology Llc., priority 2013, published 2014).

How the values were obtained:
[1] = body weight of mice during the SK-OV-3 xenograft efficacy study; assay type: in vivo, SCID mice; details: 5 mg/kg, six i.v. injections; 62nd day after tumor inoculation; mean ± STDEV of five mice
Description: (§1) The table above illustrates the comparative efficacy study in SK-OV-3 s.c. xenograft SCID mouse model of ovary cancer. Tumor was induced in mice by implanting SK-OV-3 human ovary adenocarcinoma cells s.c. in upper region of back of SCID mice and allowing the tumors to develop to appreciable size over 24 days (70 mm3). The comparative efficacy study of six i.v. injection (day 24, 31, 38, 44, 51 and 58) of 5% glucose, paclitaxel (PACL) 5 mg/kg, NP-PACL 5 mg/kg and NP-PACL-OCT 1.7 mg/kg) was evaluated over 72 days. In this table there are: change in tumor volume of mice on 62nd day after tumor inoculation (data represent mean %±SEM of five mice per group), change in body weight of mice on 62nd day after tumor inoculation (Data represent mean±STDEV of five mice per group) and survival proportion at the end of the experiment.

[2] = test system: SK-OV-3 human ovary adenocarcinoma cells; test: comparative efficacy study in SK-OV-3 s.c. xenograft SCID mouse model of ovary cancer; assay type: in vivo, SCID mice; details: 5 mg/kg
Description: as §1

CC(=O)O[C@H]1C(=O)[C@@]2(C)[C@H]([C@H](OC(=O)c3ccccc3)[C@]3(O)C[C@H](OC(=O)[C@H](O)[C@@H](NC(=O)c4ccccc4)c4ccccc4)C(C)=C1C3(C)C)[C@]1(OC(C)=O)CO[C@@H]1C[C@@H]2O [PACL, (2α,4α,5β,7β,10β,13α)-4,10-bis(acetyloxy)-13-{[(2R,3S)-3-(benzoylamino)-2-hydroxy-3-phenylpropanoyl]oxy}-1,7-dihydroxy-9-oxo-5,20-epoxytax-11-en-2-yl benzoate]
Change in body weight during the treatment (weight at start: 100%) [1]: 99% ± 5%
Change in tumor volume (control: 100%) ([2]; six i.v. injections (day 24, 31, 38, 44, 51, 58), 62nd day after tumor inoculation, mean % ± SEM of five mice): 86% ± 13%
Survival proportion at the end of the experiment ([2]; six i.v. injections, evaluated over 72 days, five mice per group): 60%
